Literature values, collected in publication PMC7029871, “Development and validation of a sensitive LC-MS/MS method for the quantitation of IMB-YH-4py5-2H, an antituberculosis candidate, and its application to the pharmacokinetic study” (PLoS ONE, 2020).
Like-named read-outs stand apart in the source and are kept apart here.

System: Mycobacterium tuberculosis strains
Settings: cited from earlier work

**Q.** Which MICs (sensitive and resistant M. tuberculosis strains, method and reference not given) does the source give for `CN(C)C(=O)/C=C/C(=O)c1ccc(-c2ccncc2)cc1.Cl` [IMB-YH-4py5-2H, (E)-N,N-dimethyl-4-oxo-4-(4-(pyridin-4-yl)phenyl)but-2-enamide hydrochloride] here?
**A.** 0.25 to 0.5 µg/mL

**Q.** For `COC(=O)/C=C/C(=O)c1ccc(OC)cc1` [YH-8, (E)-Methyl-4-aryl-4-oxabut-2-enoate, reference compound], which MICs (drug-sensitive and drug-resistant M. tuberculosis strains) is on record?
**A.** 0.25 to 1 µg/mL
